In US20050244413A1, “Compositions and methods for treating cancer using cytotoxic CD44 antibody immunoconjugates and chemotherapeutic agents” (priority 2002, published 2005):

Columns and labels:
[1] = Tolerability of BIWI 1 monotherapy in nude mice (mouse weight); format: in vivo; settings: FaDu xenografted mice, 21 mg/kg/d BIWI 1
Protocol: (§1) In vivo anti-tumor efficacy of BIWI 1 was tested in three nude mouse xenograft models applying antigen-positive human tumors: A431 (ATCC # CRL 1555; epidermoid carcinoma of the vulva), FaDu (ATCC # HTB 43; squamous cell carcinoma of the pharynx), and MDA-MB 453 (ATCC # HTB-131; breast carcinoma). The cells were received from ATCC and cultured in RPMI1640 medium containing 10% fetal calf serum and supplements. 1×10^6 tumors cells were transplanted subcutaneously into the right flank of 6 week old female NMRI-nu/nu mice. Tumor growth was monitored by measuring tumor size. A tumor response was rated as complete response when the tumor completely disappeared at any time after start of treatment. The response was rated as partial response when the tumor volume decreased after treatment but thereafter started regrowing. The tolerability of the treatment was monitored by measuring mouse weight during the observation period.
The tolerability of BIWI 1 monotherapy was determined by monitoring mouse weight during the whole duration of the experiment in the 2 models. The maximum observed average weight loss per group was 6% in FaDu xenografted mice treated with 21 mg/kg/d BIWI 1 (FIG. 5). The weight loss started around day 3 of treatment and lasted until day 10, thereafter animals regained weight and behaved similar as control animals. […]

[2] = system: antigen-positive FaDu cells; test: In vitro binding to FaDu cells (FACS); settings: 1 hour on ice, FITC-labeled anti-human IgG, read-out: apparent KD
Protocol: The binding of BIWA 4 antibody and BIWI 1 conjugate to antigen-positive FaDu cells was determined. Cells ([…]) were incubated in 96-well plates with varying concentrations of antibody or conjugate on ice for 1 hour. The test article was washed from the plate and FITC-labeled anti-human IgG was added and the incubation on ice was continued in the dark for 1 hour. After washing, the cells were fixed with 1% paraformaldehyde and analyzed on a fluorescence activated cell sorter (FACS).

[3] = system: FaDuDD tumors; test: BIWI 1 combination with cisplatin in nude mice xenografted with FaDuDD tumors; format: in vivo, mouse
Protocol: The antibody solution was injected into the tail vein with an injection volume of 200 μl for a 25 g mouse. In the control groups without BIWI 1 treatment animals were injected i.v. with PBS. […] The solution was injected into the tail vein with an injection volume of 200 μl for a 25 g mouse. […] The solution was injected into the tail vein with an injection volume of 200 μl for a 25 g mouse.
Tumor sizes and body weights were recorded 2-3 times per week. Tumor sizes were measured with a calliper (length and width) and the volume was calculated according to the following formula: volume (length)×(width)^2×([…]). The tolerability of the treatment was monitored by measuring mouse weight during the whole observation period. […] For calculation of the mean tumor volumes per group, the last values of tumor size for individual animals were carried forward in case that these animals had to be sacrificed due to large tumor burden before the whole group was terminated. In addition to the absolute tumor volume in mm^3, the relative tumor volumes (RTV) were calculated as follows:
RTV=(tumor volume at day x)/(tumor volume at start of treatment)×100 For the evaluation of treatment efficacy the following parameters were calculated: • T/C (%)=(mean RTV of treated group)/(mean RTV of control group)×100 • T4T (tumor quadrupling time)=time until the mean RTV reaches 400% • GDF4 (growth delay factor)=T4T treated/T4T control.
In addition, for some experiments, the mean time for tumors to reach 8 times (T8T) their initial sizes were also calculated. The growth delay factor (GDF8) was then calculated accordingly. Percentages of mean relative tumor volumes of treated versus control groups (T/C) were calculated on the days indicated. For statistical evaluation of combination therapies exact Wilcoxon tests were used. Tolerability was assessed by monitoring body weight changes.
A different set of experiments was done with cisplatin. In a pilot experiment, a dose of 4 mg/kg cisplatin administered i.v. four times in weekly intervals was determined to be non-curative in this model, and also represents the maximum tolerated dose in the mouse strain used. This dose of cisplatin was combined with BIWI 1 at the non-curative doses of 200 μg/kg DM1 and 300 Ag/kg DM1 already used in the previous experiment. […] In the latter combination group 2/8 complete tumor regressions could be observed. […] Treatment was well tolerated in all groups.

[4] = system: MDA-MB 453 tumors; test: BIWI 1 monotherapy in MDA-MB 453 xenografted mice; format: in vivo, mouse
Protocol: as §1
Groups of 6 mice were treated with 6.25 mg/kg BIWI 1, 12.5 mg/kg BIWI 1, and 25 mg/kg BIWI 1, respectively. Treatment consisted of i.v. injections of BIWI 1 given weekly for four weeks. The average tumor size at start of treatment was 246±/−79 mm^3 (PBS), 216 +/85 mm^3 (6.25 mg/kg BIWI 1), 188±/−79 mm^3 (12.5 mg/kg BIWI 1), and 207±/−96 mm3 (25 mg/kg BIWI 1), respectively. The initial tumor volume doubling time of the control tumors was approximately 5 days. […] Tumors treated with 12.5 mg/kg or 6.25 mg/kg responded completely in 5/6 cases in each dose group, and 4 animals of each group stayed tumor free until the end of the experiment.

[5] = BIWI 1 200 μg/kg DM1 i.v. q7dx4
[6] = BIWI 1 300 μg/kg DM1 i.v. q7dx4
[7] = 25 mg/kg BIWI 1 i.v. weekly for four weeks

BIWI 1
maximum observed average weight loss per group [1]: 6% | Kd [2]: 1.8 nM | GDF4 [3, 5]: 2.2 | T4T [3, 5]: 23.2 days | T/C (d 19) [3, 5]: 59% | GDF4 [3, 6]: 2.3 | T4T [3, 6]: 24.8 days | T/C (d 19) [3, 6]: 27% | animals tumor free until the end of the experiment ([4]; 12.5 mg/kg or 6.25 mg/kg BIWI 1, each group of 6 mice): 4 | complete responses ([4]; 12.5 mg/kg or 6.25 mg/kg BIWI 1 i.v. weekly for four weeks, in each dose group): 5/6 | day on which tumors disappeared [4, 7]: ~22 days | tumor regrowth until end of observation period (day 64) [4, 7]: No tumor regrowth | tumor response [4, 7]: all tumors responded completely
